Data: ChEMBL document CHEMBL4673347, “Discovery of new thieno[2,3-d]pyrimidine and thiazolo[5,4-d]pyrimidine derivatives as orally active phosphoinositide 3-kinase inhibitors” (Bioorg Med Chem, 2021)
pIC50: −log10 of the molar value. Values after ≈ are worked out from the molar mass of the structure shown. Active and inactive are the calls of the source. No cut-off for these calls is given here.

Experiments:
HGC-27 [1] = experiment: Induction of cell cycle arrest in human HGC-27 cells assessed as G0/G1 phase incubated for 24 hrs by propidium iodide staining based flow cytometry analysis; type: functional; conditions: dose 20-500 nM
HGC-27 [2] = experiment: Induction of apoptosis in human HGC-27 cells assessed as viable cells at 500 nM incubated for 24 hrs by annexin V-FITC and propidium iodide based staining based flow cytometry analysis (reference value: 83.7 %); type: functional; conditions: read-out: Activity
Mus musculus [3] = experiment: In vivo inhibition of PI3Kalpha in BALB/c mouse assessed as increase in plasma glucose level at 40 mg/kg, po measured after 24 hrs; type: functional, organism-based
HGC-27 [4] = experiment: Induction of apoptosis in human HGC-27 cells assessed as necrotic cells at 500 nM incubated for 24 hrs by annexin V-FITC and propidium iodide based staining based flow cytometry analysis (reference value: 1.95 %); type: functional
NCI-H460 = experiment: Antiproliferative activity against human NCI-H460 cells assessed as reduction in cell viability incubated for 72 hrs measured after 4 hrs of MTT addition by MTT assay; type: functional, cell-based
HGC-27 [5] = experiment: Antitumor activity against human HGC-27 cells xenografted in BALB/c mouse assessed as reduction in Ki67 expression at 20 to 40 mg/kg, po administered for 25 days and measured on day 25 by […] immunohistochemistry; type: functional, organism-based; conditions: dose 20-40 mg/kg, time 25.0 day
HGC-27 [6] = experiment: Inhibition of PI3K signalling in human HGC-27 cells assessed as reduction in S6RP S235/236 phosphorylation incubated for 3 hrs by Western blot analysis; type: cell-based; conditions: dose 20-1000 nM
[7] = Kinetic solubility of compound in PBS buffer at pH 7.4; type: physicochemical; conditions: read-out: Kinetic_solubility
[8] = Half life in ICR mouse at 4 mg/kg, iv measured upto 24 hrs by LC-MS/MS analysis; type: ADME, organism-based; conditions: in vivo
[9] = target: Phosphatidylinositol 4,5-bisphosphate 3-kinase catalytic subunit delta isoform (Homo sapiens, UniProt O00329); experiment: Inhibition of recombinant human full length His-tagged PI3Kdelta expressed in baculovirus expression system using PIP2 as substrate by ADP-Glo reagent based assay
Phosphatidylinositol 4,5-bisphosphate 3-kinase catalytic subunit delta isoform, sequence (O00329 whole entry, canonical isoform): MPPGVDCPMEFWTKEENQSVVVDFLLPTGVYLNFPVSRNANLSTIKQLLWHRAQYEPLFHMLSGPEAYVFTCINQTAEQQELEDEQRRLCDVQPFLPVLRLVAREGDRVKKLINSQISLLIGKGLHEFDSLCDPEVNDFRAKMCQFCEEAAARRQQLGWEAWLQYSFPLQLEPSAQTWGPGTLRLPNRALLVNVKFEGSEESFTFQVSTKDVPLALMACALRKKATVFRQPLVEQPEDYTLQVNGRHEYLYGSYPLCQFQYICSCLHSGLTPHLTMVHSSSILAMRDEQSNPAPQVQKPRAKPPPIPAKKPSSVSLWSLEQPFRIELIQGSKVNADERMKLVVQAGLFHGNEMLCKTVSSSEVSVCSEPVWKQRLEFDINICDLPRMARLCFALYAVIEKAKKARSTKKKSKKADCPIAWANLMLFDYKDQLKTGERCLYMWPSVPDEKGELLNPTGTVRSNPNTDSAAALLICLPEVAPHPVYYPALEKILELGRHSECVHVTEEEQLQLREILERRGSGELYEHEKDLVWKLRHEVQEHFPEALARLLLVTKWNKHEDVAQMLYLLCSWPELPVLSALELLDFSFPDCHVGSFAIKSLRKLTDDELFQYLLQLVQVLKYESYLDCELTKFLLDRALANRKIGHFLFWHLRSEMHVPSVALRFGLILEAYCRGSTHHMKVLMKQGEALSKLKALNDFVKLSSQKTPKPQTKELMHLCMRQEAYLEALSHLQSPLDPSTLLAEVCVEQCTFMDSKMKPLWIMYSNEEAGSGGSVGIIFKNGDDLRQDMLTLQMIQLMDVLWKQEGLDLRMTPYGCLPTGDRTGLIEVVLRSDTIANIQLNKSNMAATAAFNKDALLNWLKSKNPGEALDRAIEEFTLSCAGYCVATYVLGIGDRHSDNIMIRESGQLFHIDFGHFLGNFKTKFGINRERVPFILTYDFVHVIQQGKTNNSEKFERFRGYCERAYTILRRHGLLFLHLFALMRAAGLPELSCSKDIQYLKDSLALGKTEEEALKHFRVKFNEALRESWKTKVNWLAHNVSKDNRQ

NCI-H292 = experiment: Antiproliferative activity against human NCI-H292 cells assessed as reduction in cell viability incubated for 72 hrs measured after 4 hrs of MTT addition by MTT assay; type: functional, cell-based
[10] = target: Phosphatidylinositol 4,5-bisphosphate 3-kinase catalytic subunit alpha isoform (Homo sapiens, UniProt P42336); experiment: Inhibition of recombinant human full length His-tagged PI3Kalpha expressed in baculovirus expression system using PIP2 as substrate by ADP-Glo reagent based assay
Phosphatidylinositol 4,5-bisphosphate 3-kinase catalytic subunit alpha isoform, sequence (P42336 whole entry, canonical isoform): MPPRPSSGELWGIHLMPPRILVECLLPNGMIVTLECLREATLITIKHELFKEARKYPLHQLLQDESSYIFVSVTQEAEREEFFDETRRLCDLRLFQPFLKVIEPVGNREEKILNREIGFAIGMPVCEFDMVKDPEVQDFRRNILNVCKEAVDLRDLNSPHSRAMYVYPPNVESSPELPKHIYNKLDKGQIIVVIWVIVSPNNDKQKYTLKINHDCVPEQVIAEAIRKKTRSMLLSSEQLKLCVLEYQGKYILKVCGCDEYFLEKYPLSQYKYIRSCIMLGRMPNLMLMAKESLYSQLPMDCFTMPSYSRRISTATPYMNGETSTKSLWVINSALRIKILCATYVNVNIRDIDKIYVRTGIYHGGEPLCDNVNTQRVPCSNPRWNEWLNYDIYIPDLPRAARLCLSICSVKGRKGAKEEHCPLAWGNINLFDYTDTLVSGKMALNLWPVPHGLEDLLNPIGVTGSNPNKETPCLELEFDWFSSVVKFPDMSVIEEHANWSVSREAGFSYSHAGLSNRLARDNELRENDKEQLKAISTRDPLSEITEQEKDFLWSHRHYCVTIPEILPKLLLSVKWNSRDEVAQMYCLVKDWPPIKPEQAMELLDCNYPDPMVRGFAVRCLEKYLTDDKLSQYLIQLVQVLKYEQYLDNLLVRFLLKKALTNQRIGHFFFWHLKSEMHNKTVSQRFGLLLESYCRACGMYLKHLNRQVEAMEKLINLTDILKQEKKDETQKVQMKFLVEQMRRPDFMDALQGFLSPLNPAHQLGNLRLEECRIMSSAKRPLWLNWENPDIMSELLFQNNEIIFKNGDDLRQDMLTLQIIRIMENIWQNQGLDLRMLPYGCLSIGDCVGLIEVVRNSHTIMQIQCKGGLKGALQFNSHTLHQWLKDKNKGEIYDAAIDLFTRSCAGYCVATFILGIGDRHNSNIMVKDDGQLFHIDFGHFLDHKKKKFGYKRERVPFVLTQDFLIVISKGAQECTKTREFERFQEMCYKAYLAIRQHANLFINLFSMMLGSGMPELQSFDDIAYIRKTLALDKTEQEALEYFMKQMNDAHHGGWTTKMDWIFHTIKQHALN

[11] = Oral bioavailability in ICR mouse at 40 mg/kg measured upto 24 hrs by LC-MS/MS analysis; type: ADME, organism-based; conditions: in vivo
HGC-27 [12] = experiment: Antitumor activity against human HGC-27 cells xenografted in BALB/c mouse assessed as tumor growth inhibition at 40 mg/kg, po administered for 25 days and measured on day 25 relative to control; type: functional; conditions: HGC-27, po, 600 h, time 25 day, read-out: TGI
MDA-MB-231 = experiment: Antiproliferative activity against human MDA-MB-231 cells assessed as reduction in cell viability incubated for 72 hrs measured after 4 hrs of MTT addition by MTT assay; type: functional, cell-based
Mus musculus [13] = experiment: In vivo inhibition of PI3Kalpha in BALB/c mouse assessed as increase in plasma insulin level at 40 mg/kg, po measured after 30 mins by ELISA; type: functional, organism-based
[14] = Volume of distribution at steady state in ICR mouse at 4 mg/kg, iv measured upto 24 hrs by LC-MS/MS analysis; type: ADME, organism-based; conditions: in vivo, read-out: Vdss
NCI-H1437 = experiment: Antiproliferative activity against human NCI-H1437 cells assessed as reduction in cell viability incubated for 72 hrs measured after 4 hrs of MTT addition by MTT assay; type: functional, cell-based
HGC-27 [15] = experiment: Induction of apoptosis in human HGC-27 cells assessed as late apoptotic cells at 500 nM incubated for 24 hrs by annexin V-FITC and propidium iodide based staining based flow cytometry analysis (reference value: 8.15 %); type: functional
MGC-803 = experiment: Antiproliferative activity against human MGC-803 cells assessed as reduction in cell viability incubated for 72 hrs measured after 4 hrs of MTT addition by MTT assay; type: functional, cell-based
[16] = Antiproliferative activity against human KATO III stomach cancer cell line cells assessed as reduction in cell viability incubated for 72 hrs measured after 4 hrs of MTT addition by MTT assay; type: functional
NCI-H23 = experiment: Antiproliferative activity against human NCI-H23 cells assessed as reduction in cell viability incubated for 72 hrs measured after 4 hrs of MTT addition by MTT assay; type: functional, cell-based
[17] = target: Phosphatidylinositol 4,5-bisphosphate 3-kinase catalytic subunit beta isoform (Homo sapiens, UniProt P42338); experiment: Inhibition of recombinant human PI3Kbeta using PIP2 as substrate by ADP-Glo reagent based assay
Phosphatidylinositol 4,5-bisphosphate 3-kinase catalytic subunit beta isoform, sequence (P42338 whole entry, canonical isoform): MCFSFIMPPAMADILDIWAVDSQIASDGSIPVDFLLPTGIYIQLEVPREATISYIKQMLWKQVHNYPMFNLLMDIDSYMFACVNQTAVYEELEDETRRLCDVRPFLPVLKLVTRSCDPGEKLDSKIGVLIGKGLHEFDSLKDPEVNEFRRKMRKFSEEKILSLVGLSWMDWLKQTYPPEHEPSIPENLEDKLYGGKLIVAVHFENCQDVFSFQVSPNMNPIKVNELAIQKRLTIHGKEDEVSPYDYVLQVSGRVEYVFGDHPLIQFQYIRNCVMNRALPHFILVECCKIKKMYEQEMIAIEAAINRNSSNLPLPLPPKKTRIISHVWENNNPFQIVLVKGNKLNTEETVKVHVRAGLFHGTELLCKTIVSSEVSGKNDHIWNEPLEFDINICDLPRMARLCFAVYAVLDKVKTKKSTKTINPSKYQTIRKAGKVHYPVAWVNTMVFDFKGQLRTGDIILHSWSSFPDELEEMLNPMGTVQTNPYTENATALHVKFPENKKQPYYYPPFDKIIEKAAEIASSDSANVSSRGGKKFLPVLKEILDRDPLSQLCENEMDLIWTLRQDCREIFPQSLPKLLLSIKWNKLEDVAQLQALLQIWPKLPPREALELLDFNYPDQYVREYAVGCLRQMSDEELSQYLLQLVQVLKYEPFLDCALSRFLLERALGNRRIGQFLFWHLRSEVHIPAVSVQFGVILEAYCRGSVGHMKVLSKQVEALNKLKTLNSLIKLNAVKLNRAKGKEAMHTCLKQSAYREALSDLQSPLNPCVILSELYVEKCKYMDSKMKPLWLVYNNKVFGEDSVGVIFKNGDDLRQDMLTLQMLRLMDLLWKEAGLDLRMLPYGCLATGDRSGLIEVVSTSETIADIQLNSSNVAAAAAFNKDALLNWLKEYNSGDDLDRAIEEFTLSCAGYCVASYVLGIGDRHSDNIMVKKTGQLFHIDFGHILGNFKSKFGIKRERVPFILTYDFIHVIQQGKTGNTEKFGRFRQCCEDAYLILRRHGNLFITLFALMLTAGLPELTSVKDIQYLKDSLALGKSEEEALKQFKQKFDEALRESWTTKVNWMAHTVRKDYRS

[18] = Clearance in ICR mouse at 4 mg/kg, iv measured upto 24 hrs by LC-MS/MS analysis; type: ADME, organism-based; conditions: in vivo
MG-63 = experiment: Antiproliferative activity against human MG-63 cells assessed as reduction in cell viability incubated for 72 hrs measured after 4 hrs of MTT addition by MTT assay; type: functional, cell-based
[19] = Apparent permeability across basolateral to apical side in human Caco-2 cells; type: ADME, cell-based
HGC-27 [20] = experiment: Inhibition of PI3K signalling in human HGC-27 cells assessed as reduction in 4E-BP1 phosphorylation incubated for 3 hrs by Western blot analysis; type: cell-based; conditions: dose 20-1000 nM
HGC-27 [21] = experiment: Induction of apoptosis in human HGC-27 cells assessed as early apoptotic cells at 500 nM incubated for 24 hrs by annexin V-FITC and propidium iodide based staining based flow cytometry analysis (reference value: 6.22 %); type: functional
[22] = Cmax in ICR mouse at 40 mg/kg, po measured upto 24 hrs by LC-MS/MS analysis; type: ADME, organism-based; set-up: route oral, dose 40 mg/kg, time <=24; conditions: in vivo
SGC-7901 = experiment: Antiproliferative activity against human SGC-7901 cells assessed as reduction in cell viability incubated for 72 hrs measured after 4 hrs of MTT addition by MTT assay; type: functional, cell-based
[23] = target: Phosphatidylinositol 4,5-bisphosphate 3-kinase catalytic subunit gamma isoform (Homo sapiens, UniProt P48736); experiment: Inhibition of recombinant human GST-tagged PI3Kgamma (468 to 1203 residues) expressed in insect expression system using PIP2 as substrate by ADP-Glo reagent based assay
Phosphatidylinositol 4,5-bisphosphate 3-kinase catalytic subunit gamma isoform, sequence (P48736 whole entry, the tested form may be a part, canonical isoform): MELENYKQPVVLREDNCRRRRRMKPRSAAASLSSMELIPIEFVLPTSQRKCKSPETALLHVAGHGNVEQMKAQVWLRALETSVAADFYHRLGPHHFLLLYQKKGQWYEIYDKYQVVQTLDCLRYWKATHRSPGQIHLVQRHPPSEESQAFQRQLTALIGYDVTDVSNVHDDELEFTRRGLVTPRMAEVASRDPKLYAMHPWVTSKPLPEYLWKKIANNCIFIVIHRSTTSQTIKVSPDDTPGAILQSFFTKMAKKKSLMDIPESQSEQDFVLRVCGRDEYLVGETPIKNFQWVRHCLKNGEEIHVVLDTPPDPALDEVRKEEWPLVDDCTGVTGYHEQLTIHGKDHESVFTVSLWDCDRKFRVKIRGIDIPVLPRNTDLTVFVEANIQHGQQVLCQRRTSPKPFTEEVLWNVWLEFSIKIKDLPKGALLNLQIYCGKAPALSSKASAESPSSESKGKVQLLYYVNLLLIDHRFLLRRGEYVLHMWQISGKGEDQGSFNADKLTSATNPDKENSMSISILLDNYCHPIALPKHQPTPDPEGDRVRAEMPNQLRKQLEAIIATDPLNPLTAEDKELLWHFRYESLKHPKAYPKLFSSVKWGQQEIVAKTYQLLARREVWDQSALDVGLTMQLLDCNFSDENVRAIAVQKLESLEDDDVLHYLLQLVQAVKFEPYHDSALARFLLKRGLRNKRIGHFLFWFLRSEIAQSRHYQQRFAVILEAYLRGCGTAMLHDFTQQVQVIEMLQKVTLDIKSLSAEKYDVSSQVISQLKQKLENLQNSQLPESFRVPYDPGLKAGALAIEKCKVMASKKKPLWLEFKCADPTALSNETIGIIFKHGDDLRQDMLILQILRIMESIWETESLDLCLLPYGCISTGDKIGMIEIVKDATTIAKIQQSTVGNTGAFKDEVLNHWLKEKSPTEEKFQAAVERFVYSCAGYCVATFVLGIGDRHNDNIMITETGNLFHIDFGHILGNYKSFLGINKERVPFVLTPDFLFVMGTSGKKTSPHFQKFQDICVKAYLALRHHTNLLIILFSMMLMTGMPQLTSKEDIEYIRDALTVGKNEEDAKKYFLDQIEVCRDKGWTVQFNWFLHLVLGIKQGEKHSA

A549 = experiment: Antiproliferative activity against human A549 cells assessed as reduction in cell viability incubated for 72 hrs measured after 4 hrs of MTT addition by MTT assay; type: functional, cell-based
Mus musculus [24] = experiment: In vivo inhibition of PI3Kalpha in BALB/c mouse assessed as increase in plasma glucose level at 40 mg/kg, po measured after 30 mins; type: functional, organism-based
[25] = Half life in ICR mouse at 40 mg/kg, po measured upto 24 hrs by LC-MS/MS analysis; type: ADME, organism-based; conditions: in vivo
[26] = AUC (0 to t) in ICR mouse at 4 mg/kg, iv measured upto 24 hrs by LC-MS/MS analysis; type: ADME, organism-based; set-up: route intravenous, dose 4 mg/kg, time <=24; conditions: in vivo
BGC-823 = experiment: Antiproliferative activity against human BGC-823 cells assessed as reduction in cell viability incubated for 72 hrs measured after 4 hrs of MTT addition by MTT assay; type: functional, cell-based
[27] = Apparent permeability across apical to basolateral side in human Caco-2 cells; type: ADME, cell-based

Row | SMILES | Activity (HGC-27 [1]) | viability at 0.5 µM (HGC-27 [2]) | inhibition (Mus musculus [3]) | Activity (HGC-27 [4]) | pIC50 (NCI-H460) | inhibition (HGC-27 [5]) | inhibition (HGC-27 [6]) | solubility kinetic [7] | half-life [8] | pIC50 [9] | pIC50 (NCI-H292) | pIC50 [10] | bioavailability [11] | inhibition in vivo at 40 mg/kg (HGC-27 [12]) | pIC50 (MDA-MB-231) | inhibition (Mus musculus [13]) | Vd [14] | pIC50 (NCI-H1437) | Activity (HGC-27 [15]) | pIC50 (MGC-803) | also measured
1 | COc1ncc(-c2cc3c(N4CCOCC4)ncnc3s2)cc1NS(=O)(=O)c1ccc(F)cc1F | Dose-dependent effect | 75.1% | inactive | 0.26% | 5.40 | Active | Dose-dependent effect | 10.3 µM (≈ 5.35 µg/mL) | 1.36 h | 8.41 | 5.57 | 8.14 | 99.5% | 58.2% | 5.09 | Active | 0.537 L/kg | 5.54 | 8.87% | 5.17 | pIC50 [16]: 5.33; pIC50 (NCI-H23): 5.36; pIC50 [17]: 7.30; clearance [18]: 4.6 mL/min/kg; pIC50 (MG-63): 5.15; Papp B→A [19]: 37.6 ×10⁻⁶ cm/s; inhibition (HGC-27 [20]): Dose-dependent effect; Activity (HGC-27 [21]): 15.8%; Cmax [22]: 22500 ng/mL; pIC50 (SGC-7901): 5.28; pIC50 [23]: 7.92; pIC50 (A549): 5.11; inhibition (Mus musculus [24]): Active; half-life [25]: 13.7 h; AUC(0-t) at 24 h [26]: 14300 ng·h/mL; pIC50 (BGC-823): 5.38; Papp A→B [27]: 21.1 ×10⁻⁶ cm/s
2 | COc1ncc(-c2nc3c(N4CCOCC4)ncnc3s2)cc1NS(=O)(=O)c1ccc(F)cc1F | Dose-dependent effect | 77.7% | inactive | 0.23% | 6.31 | Active | Dose-dependent effect | 6.31 µM (≈ 3.28 µg/mL) | 2.25 h | 9.00 | 6.49 | 8.77 | 54.5% | 88.7% | 6.07 | Active | 0.513 L/kg | 5.96 | 4.53% | 6.17 | pIC50 [16]: 6.03; pIC50 (NCI-H23): 6.24; pIC50 [17]: 8.28; clearance [18]: 2.65 mL/min/kg; pIC50 (MG-63): 6.44; Papp B→A [19]: 43.4 ×10⁻⁶ cm/s; inhibition (HGC-27 [20]): Dose-dependent effect; Activity (HGC-27 [21]): 17.6%; Cmax [22]: 9610 ng/mL; pIC50 (SGC-7901): 6.19; pIC50 [23]: 8.70; pIC50 (A549): 6.21; inhibition (Mus musculus [24]): Active; half-life [25]: 6.3 h; AUC(0-t) at 24 h [26]: 23200 ng·h/mL; pIC50 (BGC-823): 5.96; Papp A→B [27]: 21.4 ×10⁻⁶ cm/s
